Assay [1] deals with HLA-A*0201 (Homo sapiens, UniProt P04439, D140Y/D185E/D98H/E176V/E277Q/G131W/G231S/I119V/I121R/I166T/I218V/L300P/L318F/N151K/N90K/P208A/P217A/Q86G/Q94H/R138H/R169H/T345S). The assay is described as follows: ED50 (M).
The subject of assay [2] is T cell lines specific for the native epitope (PRAME425-433). As to the kind of experiment: Cross-reactivity of PRAME 425-433 analogs: IFN-gamma secretion from T cell lines specific for the native epitope. The format is cell-based, HHD transgenic mice. As to conditions: analog peptide at approximately 0.3 μM. How it is done: The analogs listed in FIGS. 26-28 were tested for various properties such as improved affinity and stability of binding, cross-reactivity with the native epitope, and immunogenicity as follows in Examples 40-48. […] The observed affinities of the analogs are reported as % binding (compared to the positive control) and ED50s. Stability of binding as half time of dissociation. Cross reactivity with the native epitope was assessed by using the analog peptides to stimulate IFG-gamma secretion from a T cell lines specific for the native epitope, essentially as described in Example 6. The data shown in FIGS. 26-28 were generated by stimulating with analog peptide at approximately 0.3 μM. […] In some cases the reported values are the average of two determinations.

Assay [3] concerns T cells specific for the wild-type NY-ESO-1157-165 epitope. The assay is described as follows: Cross-reactivity and functional avidity of NY-ESO-1 157-165 analogs (IFN-gamma, T cells specific for the wild-type epitope). The format is cell-based, HHD transgenic mice. The conditions noted are these: IFN-gamma production ex vivo.
For assay [4], the target named is T1, HLA-A*0201 on T2 cells (human).
T1 construct: Class I MHC stabilised on T2 cells by added peptide, detected with a fluorescent anti-A2 antibody; also called HLA-A2; MHC class I (A2 allele)
As to the kind of experiment: T2 cell binding assay (flow cytometry).

Where a SMILES comes first, the peptide text is derived from it. Where no end group is shown, it is not given here. [ ]: non-standard residue; d: D form. Orn = NCCC[C@H](N)C(=O)O; Nva = CCC[C@H](N)C(=O)O

A word on the EC50: it is the concentration needed to bring the measured effect to its halfway point.

For `CCC[C@H](NC(=O)[C@@H](N)CO)C(=O)N[C@@H](CC(C)C)C(=O)N[C@@H](CCC(N)=O)C(=O)N[C@@H](Cc1c[nH]cn1)C(=O)N[C@@H](CC(C)C)C(=O)N[C@H](C(=O)NCC(=O)N[C@@H](CC(C)C)C(=O)O)[C@@H](C)CC` [6 | Prame 425-433 (L426(Nva)), S(Nva)LQHLIGL] (H-S[Nva]LQHLIGL-OH; N-terminus and C-terminus assumed), the concentration for a half-maximal effect (EC50) in assay [1] worked out at 1910 nM.
On the same count and under the same terms, with `CC[C@H](C)[C@H](NC(=O)[C@H](CC(C)C)NC(=O)[C@H](Cc1c[nH]cn1)NC(=O)[C@H](CCC(N)=O)NC(=O)[C@H](CC(C)C)NC(=O)[C@H](CC(C)C)NC(=O)[C@@H](N)CCCN)C(=O)NCC(=O)N[C@@H](CC(C)C)C(=O)O` [12 | Prame 425-433 (S425(Orn))] (H-[Orn]LLQHLIGL-OH; N-terminus and C-terminus assumed) the figure was 2250 nM.
Still for that read-out and setting: with `CCC[C@H](NC(=O)CNC(=O)[C@@H](NC(=O)[C@H](CC(C)C)NC(=O)[C@H](Cc1c[nH]cn1)NC(=O)[C@H](CCC(N)=O)NC(=O)[C@H](CC(C)C)NC(=O)[C@H](CC(C)C)NC(=O)[C@@H](N)CO)[C@@H](C)CC)C(=O)O` [18 | Prame 425-433 (L433(Nva))] (H-SLLQHLIG[Nva]-OH; N-terminus and C-terminus assumed) the figure was 1660 nM.
Still for that read-out and setting: with FLLQHLIGL [9 | Prame 425-433 (S425F)] the figure was 434 nM.
“Lys P1 analog: PRAME 425-433 analog with Lys for the Ser at the P1 position (KLLQHLIGL; UniProt P78395 425-433, looked up, variant S425K)”: the “IFN-γ elicited, as percent of the native peptide” value in assay [2] came to 40%.
Regarding “NY-ESO-1157-166: 10-mer of the wild-type NY-ESO-1 sequence, residues 157-166 (SLLMWITQCF; UniProt P78358 157-166, looked up, fragment)”, the “Activity in the cross-reactivity/functional avidity assay relative to wild-type NY-ESO-1 157-165, in words” value in assay [3] is on record as “showed no immunological activity”.
Consider SMLQHLIGL [3 | Prame 425-433 (L426M)], for which, in assay [1], a half-maximal response (EC50) required 988 nM.
In the case of TLLQHLIGL [11 | Prame 425-433 (S425T)], in assay [1], the half-maximal effective concentration (EC50) amounted to 1450 nM. This EC50 and that of the molecule before are within 1.5-fold of each other.
Same read-out and setting: with YLLQHLIGL [10 | Prame 425-433 (S425Y)] the figure was 550 nM.

B1: SSX-2 41-49-NH2 (A42V) (peptide)
peptide: KVSEKIFYX
modifications: C-terminal amide
Take B1: the binding result in assay [4] is recorded as “no binding”.
